Assay: Human HepG2 cell viability assay in 384 well format
Assay type: toxicity, cell-based
Set-up: dose 125 nL, time 70.5 hour; cytotoxicity at 70.5 h: concentration not given beside the values
Conditions: HepG2 cells, read-out: Inhibition

Going from `CC(C)(C)OC(=O)N1CC(=O)N(Cc2ccco2)CC(O)C1` (stereo not drawn) to `CC(C)(C)OC(=O)N1CC(=O)N(CCc2ccccc2)CC(O)C1` (stereo not drawn), the cytotoxicity at 70.5 h rises from -7.3% to 30.2%.

First: COCC(O)CN1CCC(=O)N(CC2CC2)Cc2ccccc21 (stereo not drawn)
Second: CCN1Cc2ccccc2N(C(=O)C2CCC2)CCC1=O
The cytotoxicity at 70.5 h of the first is higher: -3.32% for the first, -5.17% for the second.

Going from `COc1ccc(CN2CC(O)CN(C(=O)OCC(C)(C)C)CC2=O)cc1` (stereo not drawn) to `Cc1ccc(CN2CC(O)CN(C(=O)OCC(C)C)CC2=O)cc1` (stereo not drawn), the cytotoxicity at 70.5 h falls from -2.24% to -4.78%.

First: COc1ccc(C(=O)N2CC(=O)N(Cc3cccs3)CC(O)C2)cc1 (stereo not drawn)
Second: O=C1CN(C(=O)c2ccc(F)cc2)CC(O)CN1Cc1cccs1 (stereo not drawn)
The cytotoxicity at 70.5 h of the first is lower: -2.23% for the first, 1.6% for the second.

Going from `COc1cccc(CN2CC(O)CN(C(=O)C3CCC3)CC2=O)c1OC` (stereo not drawn) to `COc1cccc(CN2CC(O)CN(C(=O)C3CC3)CC2=O)c1OC` (stereo not drawn), the cytotoxicity at 70.5 h rises from -4.14% to 4.25%.

First: CC(C)(O)CN1CC(C)(C)CN(C(=O)CCc2ccccc2)CC1=O
Second: CCN1CC(C)(C)CN(C(=O)CCc2ccccc2)CC1=O
The cytotoxicity at 70.5 h of the first is higher: -1.35% for the first, -5.69% for the second.

First: COCC(O)CN1CC(C)(C)CN(C(=O)CCc2ccccc2)CC1=O (stereo not drawn)
Second: COc1ccccc1C(=O)N1CC(=O)N(CC(C)C)CC(O)C1 (stereo not drawn)
The cytotoxicity at 70.5 h of the first is higher: 0.943% for the first, -1.35% for the second.

Compared with `O=C1CN(C(=O)C2CCCCC2)CC(O)CN1Cc1ccc(Cl)cc1` (stereo not drawn), `CSc1ccc(C(=O)N2CC(=O)N(CC3CC3)CC(O)C2)cc1` (stereo not drawn) is higher in cytotoxicity at 70.5 h: -5.09% for the first, 2.74% for the second.

Going from `CSc1ccc(C(=O)N2CC(=O)N(CC(C)(C)C)CC(O)C2)cc1` (stereo not drawn) to `CSc1ccc(C(=O)N2CC(=O)N(Cc3cccs3)CC(O)C2)cc1` (stereo not drawn), the cytotoxicity at 70.5 h falls from -0.234% to -6.27%.

Compared with `CCOC(=O)N1CCC(OC)c2ccccc2N(C)C(=O)C1` (stereo not drawn), `COC1CCN(C(=O)COC(C)=O)CC(=O)N(C)c2ccccc21` (stereo not drawn) is lower in cytotoxicity at 70.5 h: 1.4% for the first, -3.04% for the second.

First: COC1CCN(C(=O)C2CCCC2)CC(=O)N(C)c2ccccc21 (stereo not drawn)
Second: COC1CCN(C(=O)CC2CCCC2)CC(=O)N(C)c2ccccc21 (stereo not drawn)
The cytotoxicity at 70.5 h of the first is higher: 22.2% for the first, -0.0141% for the second.

Compared with `CN1CCN2C[C@@H](CO)[C@H](c3ccccc3)[C@H]2C1`, `CC(=O)N1CCN2C[C@H](CO)[C@@H](c3ccccc3)[C@H]2C1` is lower in cytotoxicity at 70.5 h: -5.05% for the first, -6.55% for the second.

Going from `CNC(=O)[C@@H]1[C@@H](c2ccccc2)CN2CCN(Cc3cccs3)C[C@H]12` to `CNC(=O)[C@@H]1[C@@H](c2ccccc2)CN2CCN(Cc3ccco3)C[C@H]12`, the cytotoxicity at 70.5 h rises from 0.531% to 23.2%.

First: CNC(=O)[C@@H]1[C@H]2CN(Cc3ccccn3)CCN2C[C@H]1c1ccccc1
Second: CNC(=O)[C@@H]1[C@H]2CN(Cc3ccoc3)CCN2C[C@H]1c1ccccc1
The cytotoxicity at 70.5 h of the first is higher: 4.19% for the first, -0.196% for the second.

First: COC(=O)N1CC2=CC(C)(C)COc3ccc(OC)c(c32)C1
Second: COCCOC(=O)N1CC2=CC(C)(C)COc3ccc(OC)c(c32)C1
The cytotoxicity at 70.5 h of the first is higher: 1.21% for the first, -1.64% for the second.

Compared with `COC1CN(C(=O)CC(C)(C)C)CCC(=O)N(C)c2ccccc21` (stereo not drawn), `CCOC1CC2(CCN(C(=O)COC)CC2)c2cc(F)ccc21` (stereo not drawn) is higher in cytotoxicity at 70.5 h: -4.95% for the first, 1.7% for the second.

First: O=C(C1CCC1)N1CCC(=O)N(C2CC2)Cc2cc(F)ccc21
Second: CCN1C(=O)CCCC12CCCN(C(=O)c1ccsc1)C2 (stereo not drawn)
The cytotoxicity at 70.5 h of the first is lower: 1.48% for the first, 1.97% for the second.

First: COCCn1ccc2c(C(=O)O)cccc21
Second: O=C(O)CCn1ccc2cc(Br)ccc21
The cytotoxicity at 70.5 h of the first is lower: -3.92% for the first, 9.71% for the second.

Compared with `CC(C)c1cc(C(=O)O)nc2[nH]c(=O)[nH]c(=O)c12`, `Cc1ccc2cccc(Oc3nc(C)c(C(=O)O)s3)c2n1` is higher in cytotoxicity at 70.5 h: -15.1% for the first, 14.9% for the second.

First: O=C(O)Cc1cnc(-c2c(Cl)cccc2Cl)s1
Second: CC(=O)NCc1noc2c1CN(Cc1cccs1)CC2
The cytotoxicity at 70.5 h of the first is lower: -12.9% for the first, -1.08% for the second.

Going from `Cc1nc(NC(C)C)nc2c1CN(Cc1cccs1)CC2` to `O=C1CCCN1Cc1nnn2c1CN(c1ncccn1)CCC2`, the cytotoxicity at 70.5 h falls from 22.9% to -9.38%.

Going from `CCN(CC)c1ccc2ccc(C(=O)NC3CC3)cn12` to `CS(=O)(=O)N1CC(c2nc[nH]n2)c2cc(C(=O)NC3CC3)ccc21` (stereo not drawn), the cytotoxicity at 70.5 h falls from -0.636% to -3.52%.

First: CS(=O)(=O)N1CCO[C@@H]2CCN(C(=O)c3cccs3)CC[C@H]21
Second: CC(=O)N1CC2(CCN(C(=O)c3cccc4[nH]ccc34)CC2)C1
The cytotoxicity at 70.5 h of the first is higher: 1.12% for the first, -8.74% for the second.

Going from `O=C(N[C@@H]1CN(c2ncccn2)[C@@H]2CCCO[C@@H]21)c1cscn1` to `O=C(N[C@@H]1CN(c2ncc(F)cn2)[C@@H]2COC[C@@H]21)c1cscn1`, the cytotoxicity at 70.5 h falls from 20.2% to -13.8%.

Compared with `CCc1nc(-c2noc3ccc(C(=O)NCCN(C)C)cc23)co1`, `COCCN(C)C(=O)c1ccc2onc(-c3coc(C)n3)c2c1` is lower in cytotoxicity at 70.5 h: -4.76% for the first, -16.8% for the second.

Compared with `CC(C)N1CCC2(CC1)CN(C)C(=O)C[C@H]2C(F)(F)F`, `O=C(c1ccsc1)N1CCC2(CCN2Cc2ccc(F)cc2)C1` (stereo not drawn) is lower in cytotoxicity at 70.5 h: -7.67% for the first, -8.12% for the second.

Work on `O=C(c1ccc2c(c1)OCO2)N1C[C@H](OCC2CC2)[C@H]2COC[C@H]21` yielded a cytotoxicity at 70.5 h of -8.17%.

— ChEMBL document CHEMBL3507680, “University of Dundee, Gates Library screen for HepG2 cell viability”
